Measurements as given in patent US20090306072A1, “USE OF TYROSINE KINASE INHIBITORS FOR THE TREATMENT OF INFLAMMATORY PROCESSES” (Boehringer Ingelheim Pharma GmbH & Co. KG, priority 2002, published 2009).

Test system: not given
Test: not given
Details: not given

Molecule | melting point [°C]
C=CC(=O)Nc1cc2c(Nc3ccc(F)c(Cl)c3)ncnc2cc1OCCCCN1CC(=O)OC(C)(C)C1 [C, 4-[(3-chloro-4-fluoro-phenyl)amino]-7-[4-(2,2-dimethyl-6-oxo-morpholin-4-yl)-butyloxy]-6-[(vinylcarbonyl)amino]-quinazoline] | 110 to 112
CN(C)CC=CC(=O)Nc1cc2c(Nc3ccc(F)c(Cl)c3)ncnc2cc1OCC1CC1 [Example 3(2), 4-[(3-chloro-4-fluorophenyl)amino]-6-{[4-(N,N-dimethylamino)-1-oxo-2-buten-1-yl]-amino}-7-cyclopropylmethoxy-quinazoline] | 137
CCN(CC)CC=CC(=O)Nc1cc2c(Nc3ccc(F)c(Cl)c3)ncnc2cc1OCC1CC1 [Example 3, 4-[(3-chloro-4-fluorophenyl)amino]-6-{[4-(N,N-diethylamino)-1-oxo-2-buten-1-yl]amino}-7-cyclopropylmethoxy-quinazoline] | 114
CCOC(=O)CN(C)CC=CC(=O)Nc1cc2c(Nc3cccc(C)c3)ncnc2cc1OC [Example 4, 4-[(3-methylphenyl)amino]-6-[(4-{N-[(ethoxycarbonyl)methyl]-N-methylamino}-1-oxo-2-buten-1-yl)amino]-7-methoxy-quinazoline] | 122 to 124
C[C@H]1CN(CC=CC(=O)Nc2cc3c(Nc4ccc(F)c(Cl)c4)ncnc3cc2OCC2CC2)CC(=O)O1 [Example 6, 4-[(3-chloro-4-fluoro-phenyl)amino]-6-{[4-((S)-6-methyl-2-oxo-morpholin-4-yl)-1-oxo-2-buten-1-yl]amino}-7-cyclopropylmethoxy-quinazoline] | 173 to 175
COc1cc2ncnc(Nc3cccc(Br)c3)c2cc1OCCN1CC(=O)O[C@@H](C)C1 [Example 7, 4-[(3-bromo-phenyl)amino]-6-[2-((S)-6-methyl-2-oxo-morpholin-4-yl)-ethoxy]-7-methoxy-quinazoline] | 190
CN(CC=CC(=O)Nc1cc2c(Nc3ccc(F)c(Cl)c3)ncnc2cc1OC1CCCC1)C1CC1 [Example 8(9), 4-[(3-chloro-4-fluorophenyl)amino]-6-{[4-(N-cyclopropyl-N-methyl-amino)-1-oxo-2-buten-1-yl]amino}-7-cyclopentyloxy-quinazoline] | 140
CN(C)CC=CC(=O)Nc1cc2c(Nc3ccc(F)c(Cl)c3)ncnc2cc1OC[C@H]1CCCO1 [Example 8(10), 4-[(3-chloro-4-fluorophenyl)amino]-6-{[4-(N,N-dimethylamino)-1-oxo-2-buten-1-yl]-amino}-7-[(R)-(tetrahydrofuran-2-yl)methoxy]-quinazoline] | 110 to 112

Test system: zymosan-induced influx of neutrophilic granulocytes in the mouse ear
Test: Test 2: inhibition of the zymosan-induced influx of neutrophilic granulocytes in the mouse ear (MPO activity)
Assay type: in vivo
Details: female NMRI mice, ear biopsy 24 h after intradermal zymosan; p<0.005
Excerpt: • Test 2: Detection of a general anti-inflammatory principle of activity by inhibition of the zymosan-induced influx of neutrophilic granulocytes in the mouse ear by the EGF-receptor kinase inhibitor 4-[(3-chloro-4-fluoro-phenyl)amino]-6-[(4-dimethylamino-cyclohexyl)amino]-pyrimido[5,4-d]pyrimidine (compound N).
Determining the influx of neutrophilic granulocytes by measuring the myeloperoxidase (MPO) activity in the tissue. MPO is specific for neutrophilic granulocytes.
Female mice (breed: NMRI) weighing 20-25 g were anaesthetised with pentobarbital 60 mg/kg i.p. […] of zymosan dissolved in physiological saline in a volume of […] were administered intradermally into the right ear. 24 h after the intradermal application of zymosan the animals were killed with an overdose of pentobarbital. An ear biopsy (0=8 mm) was taken from the left (untreated) and right (treated) ear and placed in a test tube prepared with 1 ml of 0.5% HTAB. The samples were homogenised for 15 sec with an Ultraturrax. The homogenised preparations were centrifuged for 5 min in an Eppendorf bench centrifuge at 15700 g at ambient temperature. […] After 10 minutes' incubation at ambient temperature the absorption was measured with a spectral photometer at a wavelength of 450 nm.

Molecule | inhibition of the zymosan-induced increase in the MPO activity in the tissue [%]
CN(C)C1CCC(Nc2ncc3ncnc(Nc4ccc(F)c(Cl)c4)c3n2)CC1 (stereo not drawn) [compound N, 4-[(3-chloro-4-fluoro-phenyl)amino]-6-[(4-dimethylamino-cyclohexyl)amino]-pyrimido[5,4-d]pyrimidine] | 60

Test system: cigarette smoke-induced influx of neutrophilic granulocytes into the lung tissue
Test: Test 1: inhibition of smoke-induced accumulation of granulocytes in the lung tissue (MPO activity)
Assay type: in vivo, rats (Sprague-Dawley)
Details: Rattus norvegicus; male rats, smoke from 8 cigarettes a day for 5 days; intratracheal dose each day 30 mins before smoke exposure; lung tissue MPO; linear regression; read-out: ID50 (dosage that produced a 50% inhibition of the MPO activity)
Experimental: Male rats (breed: Sprague-Dawley) weighing from 250-300 g were exposed to the smoke from 8 cigarettes a day for 5 days. […] On the last day of the experiment the animals were killed 4 hours after the final smoke exposure and the lung tissue was removed. From each lung a sample of 70-200 mg was taken and placed in a prepared test tube containing 1 ml of 0.5% hexadecyltrimethyl ammonium bromide. The samples were homogenised for 15 sec with an Ultraturrax. The homogenates were centrifuged off in an Eppendorf bench centrifuge at 15700 g for 5 min at ambient temperature. […] After 10 minutes' incubation at ambient temperature, the absorption was measured with a spectral photometer at a wavelength of 450 nm.

Molecule | ED50 [mg/kg]
C=CC(=O)Nc1cc2c(Nc3ccc(F)c(Cl)c3)ncnc2cc1OCCCCN1CC(=O)O[C@H](C)C1 [B, 4-[(3-chloro-4-fluoro-phenyl)amino]-7-[4-((R)-6-methyl-2-oxo-morpholin-4-yl)-butyloxy]-6-[(vinylcarbonyl)amino]-quinazoline] | 0.03
C=CC(=O)Nc1cc2c(Nc3ccc(F)c(Cl)c3)ncnc2cc1OCCCCN1CC(=O)OC(C)(C)C1 [C, 4-[(3-chloro-4-fluoro-phenyl)amino]-7-[4-(2,2-dimethyl-6-oxo-morpholin-4-yl)-butyloxy]-6-[(vinylcarbonyl)amino]-quinazoline] | 0.03
C=CC(=O)Nc1cc2c(Nc3ccc(F)c(Cl)c3)ncnc2cc1OCCCCN1CC(=O)O[C@@H](C)C1 [D, 4-[(3-chloro-4-fluoro-phenyl)amino]-7-[4-((S)-6-methyl-2-oxo-morpholin-4-yl)-butyloxy]-6-[(vinylcarbonyl)amino]-quinazoline] | 0.3
COCCN(CC=CC(=O)Nc1cc2c(Nc3ccc(F)c(Cl)c3)ncnc2cc1OCC1CC1)CCOC [E, 4-[(3-chloro-4-fluoro-phenyl)amino]-6-({4-[bis-(2-methoxyethyl)-amino]-1-oxo-2-buten-1-yl}amino)-7-cyclopropylmethoxy-quinazoline] | 0.2
C[C@@H]1CN(CC=CC(=O)Nc2cc3c(Nc4ccc(F)c(Cl)c4)ncnc3cc2OCC2CC2)CC(=O)O1 [F, 4-[(3-chloro-4-fluoro-phenyl)amino]-6-{[4-((R)-6-methyl-2-oxo-morpholin-4-yl)-1-oxo-2-buten-1-yl]amino}-7-cyclopropylmethoxy-quinazoline] | 0.3
COC[C@@H]1CN(CC=CC(=O)Nc2cc3c(Nc4ccc(F)c(Cl)c4)ncnc3cc2OCC2CC2)CC(=O)O1 [H, 4-[(3-chloro-4-fluoro-phenyl)amino]-6-{[4-((S)-2-methoxymethyl-6-oxo-morpholin-4-yl)-1-oxo-2-buten-1-yl]amino}-7-cyclopropylmethoxy-quinazoline] | 0.3
CCN(CC=CC(=O)Nc1cc2c(N[C@H](C)c3ccccc3)ncnc2cc1OCC1CC1)CCOC [I, 4-[(R)-(1-phenyl-ethyl)amino]-6-({4-[N-(2-methoxy-ethyl)-N-ethyl-amino]-1-oxo-2-buten-1-yl}amino)-7-cyclopropylmethoxy-quinazoline] | 0.2
COCCN(CC=CC(=O)Nc1cc2c(N[C@H](C)c3ccccc3)ncnc2cc1OCC1CC1)CCOC [K, 4-[(R)-(1-phenyl-ethyl)amino]-6-{[4-(N,N-bis-(2-methoxy-ethyl)-amino)-1-oxo-2-buten-1-yl]amino}-7-cyclopropylmethoxy-quinazoline] | 0.3
C[C@@H](Nc1ncnc2cc(OCC3CC3)c(NC(=O)C=CCN(C)C3CCOCC3)cc12)c1ccccc1 [L, 4-[(R)-(1-phenyl-ethyl)amino]-6-({4-[N-(tetrahydropyran-4-yl)-N-methyl-amino]-1-oxo-2-buten-1-yl}amino)-7-cyclopropylmethoxy-quinazoline] | 0.1
COc1cc2ncnc(Nc3ccc(F)c(Cl)c3)c2cc1OCCN1CC(=O)O[C@@H](C)C1 [compound A, 4-[(3-chloro-4-fluoro-phenyl)amino]-6-[2-((S)-6-methyl-2-oxo-morpholin-4-yl)-ethoxy]-7-methoxy-quinazoline] | 0.1

Same assay, conditions: male rats, smoke from 8 cigarettes a day for 5 days; intratracheal dose each day 30 mins before smoke exposure; lung tissue MPO; linear regression

Molecule | ID50 (dosage that produced a 50% inhibition of the MPO activity) [mg/kg]
4-[(3-chloro-4-fluoro-phenyl)amino]-6-[2-((S)-6-methyl-2-oxo-morpholin-4-yl)-ethoxy]-7-methoxy-quinazoline [G] | <0.03

Same assay, conditions: rats, intratracheal 0.03 or 0.1 mg/kg daily, lung tissue myeloperoxidase

Molecule | inhibition of the smoke-induced accumulation of granulocytes
COc1cc2ncnc(Nc3ccc(F)c(Cl)c3)c2cc1OCCN1CC(=O)O[C@@H](C)C1 [compound A, 4-[(3-chloro-4-fluoro-phenyl)amino]-6-[2-((S)-6-methyl-2-oxo-morpholin-4-yl)-ethoxy]-7-methoxy-quinazoline] | significant (p<0.005) inhibition
